From patent US5512305A, “Invitroinhibition of the HIV virus with ionic tungstoniobate compounds” (priority 1990, dated 1996)

Key:
Vero cells = test: Cytotoxicity assay in Vero cells; assay type: cell-based
HSV-1 = test: Plaque reduction assay for herpes simplex in Vero cells; assay type: cell-based
Description: Cell culture assays for herpes simplex.
Viruses. (HSV-1) Mycoplasma-free Vero cells, obtained from Flow Laboratory (McLean, Va.), were used for plaque assays.

HIV-1 (strain LAV-1) = test: Inhibition of virus replication in human PBMC (supernatant reverse transcriptase activity); assay type: cell-based; conditions: 50% inhibition of RT activity vs untreated controls, six days after infection
Description: (§1) Cells. Human peripheral blood mononuclear cells (PBMC) from healthy HIV-1 seronegative and hepatitis B virus seronegative donors were isolated by Ficoll-Hypaque discontinuous gradient centrifugation at 1,000×g for 30 minutes, washed twice in phosphate-buffered saline (pH 7.2; PBS), and pelleted at 300×g for 10 minutes. Before infection, the cells were stimulated by phytohemagglutinin […] at a concentration of 6 μg/ml for three days in RPMI 1640 medium supplemented with 15% heat-inactivated fetal calf serum, 1.5 mM L-glutamine, penicillin (100 U/ml), streptomycin (100 μg/ml), and 4 mM sodium bicarbonate buffer.
Viruses. HIV-1 (strain LAV-1) was obtained from Dr. P. Feorino (Centers for Disease Control, Atlanta, Ga.). […]
PBMC. […] The mean reverse transcriptase (RT) activity of the inocula was 50,000 decompositions per min/ml corresponding to about 100 TCID50, as determined by Groopman et al. (Groopman et al, AIDS Res. Human Retro. 3, 71-85, 1987. The drugs at twice their final concentration in 5 ml of RPMI 1640 medium, supplemented as described above, were added to the cultures. Uninfected and untreated PBMC at equivalent cell densities were grown in parallel as controls. The cultures were maintained in a humidified 5% CO2 -95% air incubator at 37° C. for six days after infection, at which point all cultures were sampled for supernatant reverse transcriptase (RT) activity. […]
The RT assay was performed in 96-well microtiter plates, as described by Spira et al. (Spira et al, J. Clin. Microbiol. 22, 97-99, 1987). […] Four ml of scintillation fluid (Econofluor, NEN Research Products, Boston, Mass.) were added and the amount of radioactivity in each sample was determined using a Packard Tri-Carb liquid scintillation analyzer (model 2,000CA). […]

human PBMC = test: Cytotoxicity assay in uninfected PHA stimulated human PBMC (trypan blue dye-exclusion); assay type: cell-based; conditions: 6 days, cell viability
Description: as §1
Cytotoxicity assay. The drugs were evaluated for their potential toxic affects on uninfected PHA stimulated human PBMC. Flasks were seeded so that the final cell concentration was 2×10^5 cells/mi. The cells were cultured with and without drug for 6 days, at which time aliquots were counted for cell viability, as assessed by the trypan blue dye-exclusion method using a hemacytometer. The median inhibitory concentration (IC50) was calculated using the median effect method (Chou et al, Elsevier-Biosoft, Elsevier Science Publishers, Cambridge, U.K., 1985; Chou et al, Adv. Enz. Regul. 22, 27-55, 1984). The results are reported as IC50 PBMC below.

[1] = Storage stability / shelf-life; assay type: physicochemical
cells = conditions: background statement; cited from earlier work
HIV = conditions: Chemical and Engineering News, December 1986; cited from earlier work
[2] = compound abandoned; cited from earlier work
herpes virus = conditions: JP 64-38,022; cited from earlier work

| Molecule | IC50 (Vero cells) | EC50 (HSV-1) | EC50 (HIV-1 (strain LAV-1)) | IC50 (human PBMC) | also measured |
| --- | --- | --- | --- | --- | --- |
| (Na/K)6 Nb4 W2 O19 !.nH2 O [Na/K!6 Nb4 W2 O19 !] | > 100 µM | > 100 µM | 0.073 µM | > 100 µM | – |
| (Me4 N)9 P2 Nb3 W15 O62 !.15H2 O.CH3 CN | – | – | – | – | stability on storage [1]: stable on storage |
| Cc1cn([C@H]2C[C@H](N=[N+]=[N-])[C@@H](CO)O2)c(=O)[nH]c1=O [AZT] | – | – | – | – | toxicity to cells (cells): high toxicity to cells |
| (Me4 N/Na/K)5 Nb3 W3 O19 !.nH2 O [Me4 N/Na/K!5 Nb3 W3 O19 !] | > 100 µM | 5.66 µM | 8.56 µM | > 100 µM | – |
| silicotungstate acid [H4 SiW12 O40] | – | – | – | – | activity against HIV (HIV): has activity against HIV; toxicity in higher animals [2]: toxicity in higher animals |
| K5 BW12 O40 | – | – | – | – | activity against herpes virus (herpes virus): activity against herpes virus |
| Me3 NH!8 Si2 W18 Nb6 O77 ! | > 100 µM | > 1 µM | 0.081 µM | > 100 µM | – |
| K7 PW10 Ti2 O40 | – | – | – | – | activity against herpes virus (herpes virus): activity against herpes virus |
